Reference: article PMC6272684, “Synthesis, Antiproliferative and Antifungal Activities of 1,2,3-Triazole-Substituted Carnosic Acid and Carnosol Derivatives” (Molecules, 2015)

What was measured:
[1] = system: normal lung fibroblasts (MRC-5); test: Antiproliferative assay (MTT reduction, 3 days); type: cell-based, human; conditions: MRC-5 normal fibroblasts, >100 µM considered inactive; for IC50: read-out: IC50 ± SD, MRC-5
Experimental: (§1) The antiproliferative activity towards the following human cell lines was determined: normal lung fibroblasts (MRC-5), gastric epithelial adenocarcinoma (AGS), lung cancer (SK-MES-1) and bladder carcinoma (J82) cells.
(§2) All human cell lines used in this work were purchased from the American Type Culture Collection (ATCC, Manasas, VA, USA). […] All media were supplemented with 10% heat-inactivated FBS, 100 IU∙mL^−1 penicillin and 100 µg∙mL^−1 streptomycin. Cells were grown in a humidified incubator with 5% CO2 in air at 37 °C. For the antiproliferative assay, cells were plated at a density of 5 × 10^4 cells∙mL^−1. Cells were seeded in 96-well plates (100 µL∙well^−1). One day after seeding, cells were treated with medium containing the compounds at concentrations ranging from 0 up to 100 µM during 3 days. The compounds were dissolved in DMSO (1% final concentration) and complete medium. Untreated cells (medium containing 1% DMSO) were used as 100% viability controls. […] Each concentration was tested in sextuplicate and experiments were repeated 2 times. Cell viability was determined by means of the MTT reduction assay at the end of the incubation with the products. […] The software used was OriginPro 8.1 [30].

[2] = system: lung cancer (SK-MES-1) cells; test: Antiproliferative assay (MTT reduction, 3 days); type: cell-based, human; conditions: >100 µM considered inactive, read-out: IC50 ± SD, SK-MES-1
Experimental: as §1, §2

C. neoformans ATCC 32264 = test: Antifungal broth microdilution (CLSI M27-A3), growth inhibition; type: cell-based, Cryptococcus neoformans; conditions: for MIC50 (minimum concentration to inhibit 50% of fungal growth), C. neoformans: C. neoformans ATCC 32264
Procedure, shortened: (§3)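 Yeast inocula (1–5 × 10^3 CFU/mL) were tested by CLSI M27-A3 broth microdilution in RPMI-1640 at 250–3.9 μg∙mL^−1 (DMSO ≤1%) for 48 h at 30 °C in the dark. Growth was read at OD405, and % inhibition was calculated against growth and sterility controls in triplicate. MIC100 is total inhibition; MIC50 is 50% inhibition.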

[3] = system: bladder carcinoma (J82) cells; test: Antiproliferative assay (MTT reduction, 3 days); type: cell-based, human; conditions: J82 cells, 3 days, MTT; >100 µM considered inactive; read-out: IC50 ± SD, J82
Experimental: (§4) The antiproliferative activity towards the following human cell lines was determined: normal lung fibroblasts (MRC-5), gastric epithelial adenocarcinoma (AGS), lung cancer (SK-MES-1) and bladder carcinoma (J82) cells. […] When comparing the pairs 3–4, 5–6 and 7–8 differing in one CH2 unit in the linker, the activity decreased with linker length.
(§5) All human cell lines used in this work were purchased from the American Type Culture Collection (ATCC, Manasas, VA, USA). Normal lung MRC-5 fibroblasts (CCL-171), SK-MES-1 lung cancer cells (HTB-58) and J82 bladder carcinoma cells (HTB-1) were grown as monolayers in minimum essential Eagle medium (MEM) with Earles’s salts, 2 mM L-glutamine and 1.5 g∙L^−1 sodium bicarbonate. Gastric adenocarcinoma AGS cells (CRL-1739) were grown as monolayers in Ham F-12 medium containing 1 mM L-glutamine and 1.5 g∙L^−1 sodium bicarbonate. All media were supplemented with 10% heat-inactivated FBS, 100 IU∙mL^−1 penicillin and 100 µg∙mL^−1 streptomycin. Cells were grown in a humidified incubator with 5% CO2 in air at 37 °C. For the antiproliferative assay, cells were plated at a density of 5 × 10^4 cells∙mL^−1. Cells were seeded in 96-well plates (100 µL∙well^−1). One day after seeding, cells were treated with medium containing the compounds at concentrations ranging from 0 up to 100 µM during 3 days. The compounds were dissolved in DMSO (1% final concentration) and complete medium. Untreated cells (medium containing 1% DMSO) were used as 100% viability controls. […] Each concentration was tested in sextuplicate and experiments were repeated 2 times. Cell viability was determined by means of the MTT reduction assay at the end of the incubation with the products. The results were transformed to percentage of controls and the IC50 value was obtained adjusting the dose-response curve to a sigmoidal model. The software used was OriginPro 8.1 [30].

[4] = system: gastric epithelial adenocarcinoma (AGS) cells; test: Antiproliferative assay (MTT reduction, 3 days); type: cell-based, human; conditions: >100 µM considered inactive; for IC50: read-out: IC50 ± SD, AGS
Experimental: as §4, §5

C. albicans ATCC 10231 = test: Antifungal broth microdilution (CLSI M27-A3), growth inhibition; type: cell-based, Candida albicans; conditions: for MIC50 (minimum concentration to inhibit 50% of fungal growth), C. albicans: C. albicans ATCC 10231
Procedure, shortened: as §3

SMILES | IC50 [1] | IC50 [2] | Inhibition percentage against C. neoformans ATCC 32264 (C. neoformans ATCC 32264; 3.9 μg∙mL^−1, 48 h) | Inhibition percentage against C. neoformans ATCC 32264 (C. neoformans ATCC 32264; 7.8 μg∙mL^−1, 48 h) | Inhibition percentage against C. neoformans ATCC 32264 (C. neoformans ATCC 32264; 15.6 μg∙mL^−1, 48 h) | Inhibition percentage against C. neoformans ATCC 32264 (C. neoformans ATCC 32264; 31.2 μg∙mL^−1, 48 h) | Inhibition percentage against C. neoformans ATCC 32264 (C. neoformans ATCC 32264; 62.5 μg∙mL^−1, 48 h) | Inhibition percentage against C. neoformans ATCC 32264 (C. neoformans ATCC 32264; 125 μg∙mL^−1, 48 h) | Inhibition percentage against C. neoformans ATCC 32264 (C. neoformans ATCC 32264; 250 μg∙mL^−1, 48 h) | MIC50 (minimum concentration to inhibit 50% of fungal growth), C. neoformans (C. neoformans ATCC 32264) | IC50 [3] | IC50 [4] | Inhibition percentage against C. albicans ATCC 10231 (C. albicans ATCC 10231; 3.9 μg∙mL^−1, 48 h) | Inhibition percentage against C. albicans ATCC 10231 (C. albicans ATCC 10231; 7.8 μg∙mL^−1, 48 h) | Inhibition percentage against C. albicans ATCC 10231 (C. albicans ATCC 10231; 15.6 μg∙mL^−1, 48 h) | Inhibition percentage against C. albicans ATCC 10231 (C. albicans ATCC 10231; 62.5 μg∙mL^−1, 48 h) | Inhibition percentage against C. albicans ATCC 10231 (C. albicans ATCC 10231; 125 μg∙mL^−1, 48 h) | Inhibition percentage against C. albicans ATCC 10231 (C. albicans ATCC 10231; 250 μg∙mL^−1, 48 h) | Inhibition percentage against C. albicans ATCC 10231 (C. albicans ATCC 10231; 31. μg∙mL^−1, 48 h) | MIC50 (minimum concentration to inhibit 50% of fungal growth), C. albicans (C. albicans ATCC 10231) | other results
CC(C)c1cc2c3c(c1OC(=O)CCc1cn(Cc4ccccc4)nn1)OC(=O)[C@@]31CCCC(C)(C)[C@@H]1CC2 [Compound 3, 12-O-(3-(1-benzyl-1H-1,2,3-triazol-4-yl)-propanoyloxy)-11,20-epoxyabieta-8,11,13-trien-20-one] | 43.4 ± 3 µM | 73 ± 3.9 µM | 4.9 ± 0.5% | 9.0 ± 0.3% | 9.7 ± 0.1% | 14.3 ± 2.0% | 16.7 ± 0.5% | 18.4 ± 0.2% | 26.7 ± 1.5% | >250 mg/L | 74.1 ± 3.9 µM | 48.9 ± 3.9 µM | 5.7 ± 0.8% | 8.1 ± 0.8% | 9.1 ± 1.5% | 14.3 ± 2.0% | 20.2 ± 2.2% | 20.3 ± 3.9% | 11.1 ± 0.4% | >250 mg/L | IC50 ± SD, MRC-5 [1]: active; IC50 ± SD, AGS [4]: active; Antifungal activity against C. albicans (in words) (C. albicans ATCC 10231; at the assayed concentrations (250–3.9 μg∙mL^−1)): devoid of activity
CC(C)c1cc2c3c(c1OC(=O)CCc1cn(Cc4ccc(Br)cc4)nn1)OC(=O)[C@@]31CCCC(C)(C)[C@@H]1CC2 [Compound 5, 12-O-(3-(1-(4-bromobenzyl)-1H-1,2,3-triazol-4-yl)-propanoyloxy)-11,20-epoxyabieta-8,11,13-trien-20-one] | 82.6 ± 6.6 µM | > 100 µM | 2.3 ± 0.9% | 6.0 ± 0.7% | 7.7 ± 0.6% | 8.7 ± 1.4% | 12.0 ± 1.0% | 12.6 ± 0.5% | 36.9 ± 2.2% | >250 mg/L | > 100 µM | > 100 µM | 0.0% | 0.0% | 0.0% | 4.1 ± 1.7% | 8.3 ± 3.3% | 16.5 ± 1.3% | 3.0 ± 2.7% | >250 mg/L | 
CC(C)c1cc2c3c(c1OC(=O)CCCc1cn(Cc4ccc(Br)cc4)nn1)OC(=O)[C@@]31CCCC(C)(C)[C@@H]1CC2 [Compound 6, 12-O-(4-(1-(4-bromobenzyl)-1H-1,2,3-triazol-4-yl)-butanoyloxy)-11,20-epoxyabieta-8,11,13-trien-20-one] | > 100 µM | > 100 µM | 0.0% | 0.0% | 0.0% | 5.4 ± 0.7% | 12.7 ± 0.8% | 22.4 ± 1.5% | 41.4 ± 2.7% | >250 mg/L | > 100 µM | > 100 µM | 0.0% | 1.4 ± 0.4% | 1.5 ± 0.1% | 13.2 ± 1.4% | 19.9 ± 0.5% | 45.4 ± 3.4% | 4.2 ± 0.9% | >250 mg/L | 
CC(C)c1cc2c3c(c1OC(=O)CCCc1cn(Cc4ccc([N+](=O)[O-])cc4)nn1)OC(=O)C31CCCC(C)(C)C1CC2 (centres unmarked) [Compound 8, 12-O-(4-(1-(4-nitrobenzyl)-1H-1,2,3-triazol-4-yl)-butanoyloxy)-11,20-epoxyabieta-8,11,13-trien-20-one] | > 100 µM | > 100 µM | 0.0% | 0.0% | 0.3 ± 0.1% | 0.8 ± 0.1% | 8.2 ± 2.8% | 9.5 ± 2.9% | 10.4 ± 2.8% | >250 mg/L | > 100 µM | > 100 µM | 0.0% | 0.0% | 0.0% | 5.6 ± 1.7% | 14.0 ± 1.9% | 27.5 ± 2.0% | 2.5 ± 1.3% | >250 mg/L | 
